Measurements as given in patent US10227376B2, “Radiolabeled cationic steroid antimicrobials and diagnostic methods” (BRIGHAM YOUNG UNIVERSITY, priority 2014, dated 2019).

Experiment: Stability of labeled compounds in human serum
Type: in vitro ADME
Conditions: 64Cu labeled compound, four hours, 37 degrees C., 500 rpm incubation
Procedure: Stability of the labeled CSA-150 and CSA-151 compounds of Example 1 was measured. The labeled compounds were placed in human serum for four hours at 37 degrees C. at 500 rpm incubation.

## CCCCCCCCN(CCCC(C)[C@H]1CC[C@H]2[C@@H]3[C@H](OCCCNC(C)=O)C[C@@H]4C[C@H](OCCCNC(C)=O)CC[C@]4(C)[C@H]3C[C@H](OCCCNC(C)=O)[C@]12C)C(=O)NCCOCCOCCOCCOCCNC(=O)CN1CCN(CC(=O)O)CCN(CC(=O)O)CC1 (stereo partly shown) (64Cu complex, metal not drawn) [CSA-151]
  Stability of the labeled compound (% stable): 100%
